# Legend:
# Format in all cases: cell-based
# [1] = test system: Vero E6 cells; assay: Cytotoxicity test of drug (CCK-8 kit); conditions: for Cell viability: Vero E6, 48 h
# Procedure: (§1) The detection of the drug cytotoxicity was performed using CCK-8 kit (Beoytime). Specific steps were as follows:
# (§2) 1) 1×10^4 Vero E6 (ATCC) cells were placed in a 96-well plate and incubated at 37° C. for 8 hours.
# (§3) 2) The drug was diluted with DMSO to an appropriate concentration of mother liquor, and then diluted with MEM medium (purchased from Gibco, Catalog No. 10370021) containing 2% FBS (purchased from Gibco, Catalog No. 16000044) to the same concentration as that for the drug treatment. The original medium in the 96-well plate was discarded, 100 μL of drug-containing MEM medium was added to the cells, and three replicate wells were prepared for each concentration. Negative control (vehicle group, DMSO and medium were added to the cell wells, without adding drug) and blank control (DMSO and medium were added to the wells, without cells) were set up. After the drug was added, the cells were cultured at 37° C. for 48 hours.
# (§4) 3) 20 μL of CCK-8 solution (Beoytime) was added to the well to be tested, mixed gently, without generating bubbles, and continuously incubated at 37° C. for 2 hours. OD450 was read on a microplate reader (purchased from Molecular Devices, Model: SpectraMax M5), and cell viability was calculated:
# (§5) Cell activity (%)=(A(drug treatment group)−A(blank control))/(A(vehicle control)−A(blank control))=100%
# (§6) wherein A was the reading of the microplate reader.
# [2] = Cytotoxicity test of drug (CCK-8 kit); conditions: African green monkey, Vero E6 cells
# Procedure: as §1, §2, §3, §4, §5, §6
# [3] = test system: SARS-CoV-2; assay: Reduction of viral nucleic acid load of Vero E6 cells infected by SARS-CoV-2 (qRT-PCR of supernatant); conditions: for Viral genome copy number (MOI = 0.05): infected supernatant, 48 h, vehicle 2215912896 ± 388319129
smiles,measurement,setting,value
"C=C(C)[C@@H]1CCC(C)=C[C@H]1c1c(O)cc(CCCCC)cc1O [cannabidiol, (−)-2-[(3R,4R)-p-mentha-1,8-dien-3β-yl]-5-pentylresorcinol]",Cell viability,[1]; 0.78 μM,73.45 ± 7.48%
same,Cell viability,[1]; 1.56 μM,74.22 ± 13.42%
same,Cell viability,[1]; 3.13 μM,58.45 ± 5.30%
same,Cell viability,[1]; 6.25 μM,60.07 ± 6.01%
same,Cell viability,[1]; 12.5 μM,50.01 ± 8.40%
same,Cell viability,[1]; 25 μM,38.39 ± 5.70%
same,Cell viability,[1]; 50 μM,22.85 ± 18.47%
same,Cell viability,[1]; 100 μM,8.87 ± 3.59%
same,Change of cell viability,[1]; concentrations of 1.56 μM and 0.78 μM,did not change the cell viability
same,CC50 at 48 h,[2],4.1 µM
same,Viral genome copy number (MOI = 0.05),[3]; 0.04 μM,1853011000 ± 279114748
same,Viral genome copy number (MOI = 0.05),[3]; 0.12 μM,1860569042 ± 365350110
same,Viral genome copy number (MOI = 0.05),[3]; 0.37 μM,1224296104 ± 183149682
same,Viral genome copy number (MOI = 0.05),[3]; 1.11 μM,877127896 ± 122398434
same,Viral genome copy number (MOI = 0.05),[3]; 3.33 μM,668555500 ± 83251338
same,Inhibition of viral RNA load on cells,[3]; 48 h after infection of vero E6 cells with SARS-CoV-2 (FIG. 1),the inhibitory activity was dose-dependent
same,EC50,"[3]; Severe acute respiratory syndrome coronavirus 2, Vero C1008, Vero E6 cells, read-out: EC50 against SARS-CoV-2",0.62 µM
same,Inhibition of replication of the SARS-CoV-2 virus genome in the infected supernatant,"[3]; concentrations of 10 μM, 3.3 μM, 1.1 μM and 0.37 μM",could effectively inhibit the replication

# From patent US20230263811A1, “APPLICATION OF C[…] TREATMENT OF CORONAVIRUS INFECTIONS” (ACADEMY OF MILITARY MEDICAL SCIENCES, priority 2020, published 2023)
